# Assay results reported in US11096985B2, “Antimicrobial peptides, their variants and uses” (priority 2015, dated 2021).
# Where a SMILES comes first, the peptide text is derived from it. [ ]: non-standard residue; d: D form.
# What was measured:
# [1] = system: clinical strains of Proteus mirabilis; test: MIC, clinical strains of Proteus mirabilis; assay type: cell-based; parameters: unit: µg/mL; settings: microdilution, Muller Hinton broth-cation adjusted, 0.02% BSA, 0.2% acetic acid
# Procedure, shortened: (§1)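 Broth microdilution in Mueller Hinton broth, inoculum adjusted to 5.0×10^5 cfu/ml, peptide tested at 0.125 to 128 μg/ml and incubated at 37° C. for 20 to 24 hours. MIC was the lowest concentration with no visible growth. Yeasts were tested in potato dextrose broth.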
# [2] = system: clinical strains of C. glabrata; test: MIC, clinical yeast strains, C. glabrata; assay type: cell-based, Candida glabrata; parameters: unit: μg/ml
# Procedure, shortened: as §1
# [3] = system: clinical strains of C. quillermondiae; test: MIC, clinical yeast strains, C. quillermondiae; assay type: cell-based; settings: C. quillermondiae clinical yeast strain 1
# Procedure, shortened: as §1
# [4] = system: clinical strains of Enterobacter cloacae; test: MIC, clinical strains of Enterobacter cloacae; assay type: cell-based; parameters: unit: μg/ml; settings: microdilution, Muller Hinton broth-cation adjusted, 0.02% BSA, 0.2% acetic acid
# Procedure, shortened: as §1
# [5] = system: clinical strains of Candida albicans; test: MIC, clinical yeast strains, Candida albicans; assay type: cell-based; parameters: unit: μg/ml
# Procedure, shortened: as §1
# [6] = system: clinical strains of Escherichia coli; test: MIC, clinical strains of E. coli; assay type: cell-based; parameters: unit: μg/ml; settings: microdilution, Muller Hinton broth-cation adjusted, 0.02% BSA, 0.2% acetic acid
# Procedure, shortened: as §1
# [7] = system: clinical strains of Serratia marcescens; test: MIC, clinical strains of Serratia marcescens; assay type: cell-based; parameters: unit: µg/mL; settings: microdilution, Muller Hinton broth-cation adjusted, 0.02% BSA, 0.2% acetic acid
# Procedure, shortened: as §1
# [8] = system: clinical strains of Pseudomonas aeruginosa; test: MIC, clinical strains of P. aeruginosa; assay type: cell-based; parameters: unit: μg/ml; settings: microdilution, Muller Hinton broth-cation adjusted, 0.02% BSA, 0.2% acetic acid
# Procedure, shortened: as §1
# [9] = system: clinical strains of Klebsiella pneumoniae; test: MIC, clinical strains of K. pneumoniae; assay type: cell-based; parameters: unit: μg/ml; settings: microdilution, Muller Hinton broth-cation adjusted, 0.02% BSA, 0.2% acetic acid
# Procedure, shortened: as §1
# [10] = system: clinical strains of C. parapsilosis; test: MIC, clinical yeast strains, C. parapsilosis; assay type: cell-based, Candida parapsilosis; parameters: unit: μg/ml
# Procedure, shortened: as §1
# [11] = system: clinical strains of Acinetobacter baumannii; test: MIC, clinical strains of Acinetobacter baumannii; assay type: cell-based; settings: microdilution, Muller Hinton broth-cation adjusted, 0.02% BSA, 0.2% acetic acid
# Experimental: Minimum inhibition concentrations (MICs) were determined against Escherichia coli (ATCC 25922), Staphylococcus aureus (ATCC 25923), Klebsiella pneumoniae (ATCC 10031) and Pseudomonas aeruginosa (ATCC 27853). Also clinical strains of E. coli, K. pneumoniae, E. cloacae, P. aeruginosa, Serratia marcescens, Proteus mirabilis, S. pneumoniae, Acinetobacter baumannii, A. johnsonii and S. aureus were used for MICs assays. Additionally, clinical strains of yeast including Candida albicans, C. glabrata, C. parapsilosis and C. quillermondiae were used. The susceptibility of these microorganisms to Chain peptides were determined using micro broth dilution assay. Colonies of the respective microorganism from Muller Hinton (MH) agar plates incubated overnight were suspended in MH broth media and final concentration of microorganism was adjusted to 5.0×10^5 cfu/ml. An aliquot of 10 μl of each Chain peptide, or gentamicin, tetracycline as reference antibiotics were added in differing concentrations along with 90 μl of bacterial suspension to 96 well polypropylene plates and incubated at 37° C. for 20 to 24 hours. Concentrations of Chain peptides and reference antibiotics ranged from 0.125 to 128 μg/ml and the MICs were recorded as the lowest concentration with no visual growth of bacteria. Similarly, antifungal MICs were tested in Potato dextrose broth.
# Clinical strains of yeasts including Candida albicans, C. glabrata, C. parapsilosis and C. quillermondiae were also tested with the 12 Chain peptides. The minimum inhibitory concentration (MICs) varied between these peptides and are presented in Tables 4a, 4b, 4c and 5a, 5b, 5c. Peptides Chain 105, 201 and 308 are broad spectrum antimicrobials with MICs between 0.5-32 μg/ml against all the bacteria and yeasts tested, except Serratia marcescens and Proteus mirabilis, against which the MICs were between 64-128 μg/ml. Peptide Chain 306 has narrow spectrum activity against E.coli at 1 μg/ml and for the rest of the bacterial strains at >32 μg/ml (FIG. 10).
# [12] = system: clinical strains of Staphylococcus aureus; test: MIC, clinical strains of S. aureus; assay type: cell-based; parameters: unit: μg/ml; settings: microdilution, Muller Hinton broth-cation adjusted, 0.02% BSA, 0.2% acetic acid
# Procedure, shortened: as §1
# [13] = system: clinical strains of Streptococcus pneumoniae; test: MIC, clinical strains of Streptococcus pneumoniae; assay type: cell-based; parameters: unit: µg/mL; settings: microdilution, Muller Hinton broth-cation adjusted, 0.02% BSA, 0.2% acetic acid
# Procedure, shortened: as §1
structure (smiles),measurement,setting,value
CC[C@@H](C)[C@@H](NC(=O)[C@@H](Cc1c[nH]c2ccccc12)NC(=O)[C@H](N)CCCCN)C(=O)N[C@@H](C(=O)N[C@H](Cc1c[nH]c2ccccc12)C(=O)N[C@H](CCCNC(=N)N)C(=O)N[C@H](Cc1c[nH]c2ccccc12)C(=O)N[C@H](CCCNC(=N)N)C(=O)N[C@H](Cc1ccccc1)C(=O)N[C@H](CCCCN)C(=O)N[C@H](CCCNC(=N)N)C(=O)O)C(C)C [Chain201D] (H-[dK][dW][dI][dV][dW][dR][dW][dR][dF][dK][dR]-OH),Minimum inhibitory concentration,[1]; Proteus mirabilis clinical strain 1,>128
same,Minimum inhibitory concentration,[1]; Proteus mirabilis clinical strain 2,32
same,Minimum inhibitory concentration,[1]; Proteus mirabilis clinical strain 3,64
same,Minimum inhibitory concentration,[1]; Proteus mirabilis clinical strain 4,>128
same,Minimum inhibitory concentration,[1]; Proteus mirabilis clinical strain 5,>128
same,Minimum inhibitory concentration,[2]; C. glabrata clinical yeast strain 1,8
same,Minimum inhibitory concentration,[2]; C. glabrata clinical yeast strain 2,8
same,Minimum inhibitory concentration,[2]; C. glabrata clinical yeast strain 3,8
same,Minimum inhibitory concentration,[2]; C. glabrata clinical yeast strain 4,64
same,Minimum inhibitory concentration,[3],8
same,Minimum inhibitory concentration,[4]; Enterobacter cloacae clinical strain 1,1
same,Minimum inhibitory concentration,[4]; Enterobacter cloacae clinical strain 2,2
same,Minimum inhibitory concentration,[4]; Enterobacter cloacae clinical strain 3,2
same,Minimum inhibitory concentration,[4]; Enterobacter cloacae clinical strain 4,2
same,Minimum inhibitory concentration,[4]; Enterobacter cloacae clinical strain 5,1
same,Minimum inhibitory concentration,[5]; Candida albicans clinical yeast strain 1,16
same,Minimum inhibitory concentration,[5]; Candida albicans clinical yeast strain 2,8
same,Minimum inhibitory concentration,[5]; Candida albicans clinical yeast strain 3,8
same,Minimum inhibitory concentration,[5]; Candida albicans clinical yeast strain 4,16
same,Minimum inhibitory concentration,[5]; Candida albicans clinical yeast strain 5,8
same,Minimum inhibitory concentration,[6]; Escherichia coli clinical strain 1,16
same,Minimum inhibitory concentration,[6]; Escherichia coli clinical strain 2,1
same,Minimum inhibitory concentration,[6]; Escherichia coli clinical strain 3,1
same,Minimum inhibitory concentration,[6]; Escherichia coli clinical strain 4,1
same,Minimum inhibitory concentration,[6]; Escherichia coli clinical strain 5,1
same,Minimum inhibitory concentration,[7]; Serratia marcescens clinical strain 1,64
same,Minimum inhibitory concentration,[7]; Serratia marcescens clinical strain 2,64
same,Minimum inhibitory concentration,[7]; Serratia marcescens clinical strain 3,64
same,Minimum inhibitory concentration,[7]; Serratia marcescens clinical strain 4,64
same,Minimum inhibitory concentration,[7]; Serratia marcescens clinical strain 5,128
same,Minimum inhibitory concentration,[8]; Pseudomonas aeruginosa clinical strain 1,4
same,Minimum inhibitory concentration,[8]; Pseudomonas aeruginosa clinical strain 2,4
same,Minimum inhibitory concentration,[8]; Pseudomonas aeruginosa clinical strain 3,4
same,Minimum inhibitory concentration,[8]; Pseudomonas aeruginosa clinical strain 4,2
same,Minimum inhibitory concentration,[8]; Pseudomonas aeruginosa clinical strain 5,2
same,Minimum inhibitory concentration,[9]; Klebsiella pneumoniae clinical strain 1,2
same,Minimum inhibitory concentration,[9]; Klebsiella pneumoniae clinical strain 2,2
same,Minimum inhibitory concentration,[9]; Klebsiella pneumoniae clinical strain 3,4
same,Minimum inhibitory concentration,[9]; Klebsiella pneumoniae clinical strain 4,4
same,Minimum inhibitory concentration,[9]; Klebsiella pneumoniae clinical strain 5,2
same,Minimum inhibitory concentration,[10]; C. parapsilosis clinical yeast strain 1,8
same,Minimum inhibitory concentration,[10]; C. parapsilosis clinical yeast strain 2,8
same,Minimum inhibitory concentration,[10]; C. parapsilosis clinical yeast strain 3,8
same,Minimum inhibitory concentration,[10]; C. parapsilosis clinical yeast strain 4,8
same,Minimum inhibitory concentration,[11]; Acinetobacter baumannii clinical strain 1,4
same,Minimum inhibitory concentration,[11]; Acinetobacter baumannii clinical strain 2,4
same,Minimum inhibitory concentration,[11]; Acinetobacter baumannii clinical strain 3,4
same,Minimum inhibitory concentration,[11]; Acinetobacter baumannii clinical strain 4,4
same,Minimum inhibitory concentration,[11]; Acinetobacter baumannii clinical strain 5,4
same,Minimum inhibitory concentration,[12]; Staphylococcus aureus clinical strain 1,1
same,Minimum inhibitory concentration,[12]; Staphylococcus aureus clinical strain 2,1
same,Minimum inhibitory concentration,[12]; Staphylococcus aureus clinical strain 3,1
same,Minimum inhibitory concentration,[12]; Staphylococcus aureus clinical strain 4,1
same,Minimum inhibitory concentration,[12]; Staphylococcus aureus clinical strain 5,1
same,Minimum inhibitory concentration,[13]; Streptococcus pneumoniae clinical strain 1,8
same,Minimum inhibitory concentration,[13]; Streptococcus pneumoniae clinical strain 2,4
same,Minimum inhibitory concentration,[13]; Streptococcus pneumoniae clinical strain 3,2
same,Minimum inhibitory concentration,[13]; Streptococcus pneumoniae clinical strain 4,4
same,Minimum inhibitory concentration,[13]; Streptococcus pneumoniae clinical strain 5,4
